Assay results reported in ChEMBL document CHEMBL1921705, “Thiophene inhibitors of PDE4: crystal structures show a second binding mode at the catalytic domain of PDE4D2” (Bioorg Med Chem Lett, 2011).
Active and inactive are the calls of the source. No cut-off for these calls is given here.

Legend:
[1] = tested on: UMR106; test: Inhibition of PDE4D2 in rat UMR106 cell lysates at 1 uM after 15 mins using [3H]cAMP by scintillation proximity assay; type: cell-free
[2] = molecular target: T1, 3',5'-cyclic-AMP phosphodiesterase 4D (Homo sapiens, UniProt Q08499); test: Inhibition of N-terminal 6His-tagged human recombinant PDE4D2 expressed in Escherichia coli BL21 (DE3) at 1 uM after 15 mins using [3H]cAMP by scintillation proximity assay
[3] = Inhibition of rat PDE4D2 in UMR106 cell lysates after 15 mins using [3H]cAMP by scintillation proximity assay; type: cell-free
[4] = Inhibition of PDE in rat UMR106 cells co-expressing CRE-luc assessed as PTH-induced cAMP accumulation by luciferase reporter gene assay; type: cell-based
[5] = tested on: UMR106; test: Inhibition of PDE4D2 in rat PTHrP-stimulated UMR106 cells coexpressing pCRE-luc assessed as activation of cREB protein after 4 hrs by measuring luciferase activity by luminescence assay; type: cell-based
[6] = tested on: UMR106; test: Inhibition of PDE4D2 in rat UMR106 cells coexpressing pCRE-luc assessed as activation of cREB protein after 4 hrs by measuring luciferase activity by luminescence assay; type: cell-based
[7] = molecular target: T1, 3',5'-cyclic-AMP phosphodiesterase 4D; test: Inhibition of human recombinant PDE4D2 overexpressed in Escherichia coli after 15 mins using [3H]cAMP by scintillation proximity assay
[8] = tested on: UMR106; test: Inhibition of PDE4D2 in rat UMR106 cells coexpressing pCRE-luc assessed as activation of cREB protein at 10 uM after 4 hrs by measuring luciferase activity by luminescence assay; type: cell-based

T1 sequence (Q08499 whole entry): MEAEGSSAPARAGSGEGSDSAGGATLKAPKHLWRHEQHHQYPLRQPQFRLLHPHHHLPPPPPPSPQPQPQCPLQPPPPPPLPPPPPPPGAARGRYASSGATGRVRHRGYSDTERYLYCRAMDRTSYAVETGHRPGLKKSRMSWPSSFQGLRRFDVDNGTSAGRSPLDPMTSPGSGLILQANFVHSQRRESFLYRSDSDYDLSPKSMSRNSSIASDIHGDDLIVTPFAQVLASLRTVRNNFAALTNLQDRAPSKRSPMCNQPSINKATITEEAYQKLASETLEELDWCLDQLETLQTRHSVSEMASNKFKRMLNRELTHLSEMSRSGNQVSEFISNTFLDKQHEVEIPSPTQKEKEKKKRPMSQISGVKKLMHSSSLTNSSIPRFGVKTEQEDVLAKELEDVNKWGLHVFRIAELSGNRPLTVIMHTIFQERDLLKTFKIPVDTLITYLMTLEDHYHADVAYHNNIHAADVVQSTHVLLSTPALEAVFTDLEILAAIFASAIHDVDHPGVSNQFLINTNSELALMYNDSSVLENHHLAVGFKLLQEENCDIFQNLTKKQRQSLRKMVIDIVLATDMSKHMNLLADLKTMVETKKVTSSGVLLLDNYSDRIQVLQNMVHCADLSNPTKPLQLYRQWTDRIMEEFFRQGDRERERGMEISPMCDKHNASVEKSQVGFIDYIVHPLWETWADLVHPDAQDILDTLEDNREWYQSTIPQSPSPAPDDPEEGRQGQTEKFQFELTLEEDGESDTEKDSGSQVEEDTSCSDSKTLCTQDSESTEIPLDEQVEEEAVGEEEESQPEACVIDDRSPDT

inhibition [2] [%]	SMILES	inhibition [1] [%]	other results
65	O=C(Cc1ccccn1)Nc1sc2c(c1C(=O)OC1CCCC1)CCN(C(=O)NCc1ccccc1)C2		
88	CCNC(=O)N1CCc2c(sc(NC(=O)Cc3cccs3)c2C(=O)OC2CCCC2)C1		
72	CCOC(=O)c1c(NC(=O)Cc2ccccn2)sc2c1CCN(C(=O)OCC)C2	73	IC50 [3]: 80 nM
61	CCOC(=O)N1CCc2c(sc(NC(=O)Cc3ccccc3)c2C(=O)OC2CCCCC2)C1		
38	CCOC(=O)c1c(NC(=O)Cc2ccccc2)sc2c1CCN(C(=O)OC(C)(C)C)C2		
98	CCNC(=O)N1CCc2c(sc(NC(=O)Cc3ccccc3)c2C(=O)OCC)C1		
98	CCOC(=O)c1c(NC(=O)Cc2cccs2)sc2c1CCN(C(=O)OCC)C2	70	IC50 [3]: 182 nM
95	CCOC(=O)N1CCc2c(sc(NC(=O)Cc3cccs3)c2C(=O)OC2CCCC2)C1		inhibition [5]: Dose-dependent effect; inhibition [6]: Dose-dependent effect
-1	CCOC(=O)N1CCc2c(sc(NC(=O)Cc3ccccc3)c2C(N)=O)C1	18	

Second part, the molecule before the results:

SMILES	inhibition [2] [%]	inhibition [1] [%]	other results
CCOC(=O)c1c(NC(=O)Cc2ccccc2)sc2c1CCNC2		25	
N#Cc1c(NC(=O)Cc2ccccc2)sc2c1CCCC2		24	
NC(=O)c1c(NC(=O)Cc2ccccc2)sc2c1CCCC2		15	
CCOC(=O)c1c(NC(=O)c2ccccc2)sc2c1CCN(C(=O)OCC)C2		14	
CCOC(=O)c1c(NC(=O)Cc2cccc(OC)c2)sc2c1CCN(C(=O)OCC)C2		9	
CCOC(=O)c1c(NC(=O)CCc2ccccc2)sc2c1CCN(C(=O)OCC)C2		22	
CCOC(=O)c1c(NC(=O)Cc2ccccc2OC)sc2c1CCN(C(=O)OCC)C2		37	
CCOC(=O)c1c(NCc2ccccc2)sc2c1CCN(C(=O)OCC)C2		33	
COc1ccc(C2CNC(=O)C2)cc1OC1CCCC1 (stereo unspecified) [ROLIPRAM]			IC50 [4]: 600 nM
CCOC(=O)c1c(NC(=O)Cc2ccc(OC)cc2)sc2c1CCN(C(=O)OCC)C2	23	26	
CCOC(=O)c1c(NC(=O)Cc2ccccc2)sc2c1CCCC2	68		IC50 [7]: 1500 nM; inhibition [8]: Active
CCOC(=O)c1c(NC(=O)Cc2ccccc2)sc2c1CC(C)(C)OC2			inhibition [8]: Active
CCOC(=O)c1c(NC(=O)Cc2ccc(S(C)(=O)=O)cc2)sc2c1CCN(C(=O)OCC)C2		-4	
CCOC(=O)c1c(NC(=O)Cc2ccccc2)sc2c1CCN(C(=O)OCC)C2	86	85	IC50 [7]: 100 nM; inhibition [8]: Active
CCOC(=O)c1c(NC(=O)Cc2cccs2)sc2c1CCCC2			inhibition [8]: Active
CCOC(=O)c1c(NC(=O)Cc2ccccc2)sc2c1CCN(C(C)=O)C2		50	IC50 [3]: 1000 nM
CCOC(=O)c1c(NC(=O)c2cccc(S(=O)(=O)N3CCOCC3)c2)sc(C)c1C			inhibition [8]: Active
CCOC(=O)c1c(NC(=O)Cc2ccccc2)sc2c1CCC2			inhibition [8]: Active
